The text below walks through data of US10577322B2, “5-methoxytryptophan and its derivatives and uses thereof” (National Health Research Institutes, priority 2015, dated 2020).

One test deals with vascular calcification. Put plainly: High fat diet-induced arterial calcification in ApoE-deficient mice (von Kossa). Particulars: 23.4 mg/kg 3 times a week i.p., 20 weeks. The class given is in vivo. Here is the method:
ApoE-deficient mice were fed with on a Western high fat diet containing 1.25% cholesterol and 21% fat (Research Diets) starting at 6 weeks of age. The mice were simultaneously treated with vehicle (PBS) or 5-MTP (23.4 mg/kg body weight, 3 times a week) by intraperitoneal injection. After 20 weeks, the aortic trees were dissected and lesions examined in the aortic arch and its branches. Vascular calcifications in the aortic root were evaluated by von Kossa staining.
Vascular smooth muscle cell (VSMC) calcification is the major phenomenon to induce atherosclerotic vascular calcification in cardiovascular disease (CVD). We next investigated the effect of 5-MTP derivatives on VSMC calcification.

A further test deals with neutrophil infiltration. Kind of test: Neutrophil infiltration in lung tissues (Ly6G staining). The class given is in vivo, mice. Here is the method: (§1) Prior to immunohistochemical detection of COX-2, iNOS, Ly6g, or cleaved caspase-3 in lung sections, sections were deparaffinized with xylene, progressively rehydrated through graded alcohols. Antigen sites were retrieved by heating the sections on slides in pH 8 EDTA antigen. retrieval (Trilogy; Cell Marque Corporation) in electric pressure cooker for 15 min. […] All antibodies described hereafter were diluted in blocking buffer. Sections were incubated at room temperature for 2 h with primary antibody and then washed in PBST. The sections were incubated with primary antibody amplifier quanta (Thermo) for 10 minutes. After rinsing with PBST, the sections were incubated with HRP Polymer Quanto (Thermo) for 10 minutes and washed three times with PBST. COX-2, iNOS, Ly6g and cleaved caspase-3 were visualized by the addition of DAB Quanto Chromogen: Substrate for 3 minutes. Tissues were also counterstained with hematoxylin.
Thirty min after saline or 5-MTP administration, mice were injected intraperitoneally with LPS at 4 h, 12 h, 16 h and 24 h. Paraffin-embedded lung tissue specimens were subjected to immunohistochemical Ly6G staining for determination of neutrophil infiltration in lung tissues. The results are shown in FIG. 8A, in which scale bars represent 100 μm.

The next test has as its system caspase-3. Kind of test: Cleaved caspase-3 immunohistochemistry in lung tissues. It counts as in vivo, mice. Particulars: LPS 60 mg/kg, 12 and 16 h. As for the experimental part: as §1
Paraffin-embedded sections were prepared from lung tissues of mice treated with saline or LPS (60 mg/kg) with or without various concentrations of 5-MTP for 12 or 16 h. Activated caspase-3 level in lung tissues was determined by immunohistochemical staining of cleaved caspase-3. The results are shown in FIG. 9A, in which scale bars represent 200 μm.

A further test relates to ERK½. Kind of test: LPS-induced ERK½ phosphorylation in RAW264.7 cells (immunoblot). The class given is cell-based, mouse. Particulars: LPS 4 h. As for the experimental part:
Cellular protein were resolved by 5% to 20% SDS-PAGE and transferred to nitrocellulose membranes and blotted with specific antibodies as previously described (Lee, G. L., et al.).
After pretreating RAW264.7 cells with different concentrations of 5-MTP for 30 min, cells were stimulated with LPS for 4 h. Cell lysates were immunoblotted with antibodies for p38, phospho-p38 (p-p38), ERK½, phospho-ERK½ (p-ERK½) or β-actin. […] Activation of p38 MAPK in macrophages is required for TLR-induced NF-κB activation, which is one of the key factors affecting TLR-induced cytokine production. Thus, we evaluated the effect of 5-MTP on LPS-induced. NF-κB activation.

Another test has as its system IL-6 promoter. Put plainly: IL-6 promoter-luciferase assay in RAW264.7 cells. It counts as cell-based, mouse. Particulars: LPS 8 h. As for the experimental part:
RAW264.7 macrophages were cotransfected with COX-2 promoter-luciferase, IL-6 promoter-luciferase constructs as previously described (Lee, G. L., et al.) or p5xNF-κB-luciferase (Stratagene) and pcDNA3.1-β-galactosidase plasmids using FuGENE 6 (Roche). After overnight transfection, the cells were incubated with or without LPS in the presence or absence of 5-MTP for 8 h. After treatment, cells were lysed, and luciferase activity was measured using an assay kit (Promega). β-galactosidase activity was used to normalize the data.
Moreover, RAW264.7 cells and IL-6 promoter-luciferase plasmid transfected RAW264.7 cells were pretreated with different concentrations of 5-MTP for 30 min, followed by LPS stimulation for 8 h. IL-6 promoter activity was measured by luciferase assay. IL-6 level in culture supernatants was measured by ELISA.

For a further test, the system named is lung tissues. Put plainly: Lung histology (H&E) in LPS-treated mice. It counts as in vivo. Particulars: LPS 60 mg/kg. As for the experimental part:
For histological studies, the lungs were perfused with saline, and immersed in formalin for 24 h. Tissue blocks were placed in formalin, dehydrated in a graded series of ethanol, embedded in paraffin, cut into 3 μm-thick serial sections, and stained with haematoxylin and eosin for detecting inflammatory cells, alveolar congestion and alveolar septal wall thickness and interstitial edema.
In addition, paraffin-embedded sections were prepared from lungs of mice injected with 60 mg/kg LPS with or without saline or 5-MTP for the indicated time. Lung tissues were stained with hematoxylin and eosin and examined under light microscopy. The results are shown in FIG. 5C, in which scale bars represent 100 μm.

The test system of a further test is Myeloperoxidase (MPO). Put plainly: MPO activity assay in lung tissues. Particulars: 5-MTP 23.4 mg/kg, 16 h. It counts as in vivo, mice. As for the experimental part: Myeloperoxidase (MPO) activity of lung tissue was assayed by Myeloperoxidase fluorometric detection kit (Enzo Life Sciences). In brief, lung tissue specimens were homogenized by Tissuelyser II (Qiagen) in tissue protein extraction buffer (pH 7.4 25 mM Tris buffer, 150 mM NaCl, 0.5% sodium deoxycholate, 2% NP-40 and 0.2% SDS), and centrifuged at 12,000×g for […] at 4° C. The supernatants were removed and the pellets were homogenized by Tissuelyser II for 30 seconds in 1 ml assay buffer with 0.5% hexadecyltrimethylammonium, and then samples were frozen, thawed three times, andcentrifuged at 8,000×g for 20 min. Collected supernatants and standard were mixed with reaction cocktail (50 μM detection reagent and 20 μM hydrogen peroxide in 1X assay buffer at room temperature in the dark. After 30 min incubation, MPO activity was determined by measuring the fluorescence intensity at excitation 530 nm and emission at 600 nm in a fluorescent plate reader.
In addition, MPO activity was determined in lung tissues of mice treated with saline or LPS in the presence or absence of 5-MTP (23.4 mg/kg) for 16 h (n=6 mice/group).

The test system of a further test is p300 HAT. Put plainly: p300 HAT activity in lung tissues of mice. Particulars: 8-24 h after LPS, 5-MTP 23.4 mg/kg. It counts as in vivo. As for the experimental part:
In addition, p300 HAT activity in lung tissues of mice (n=6 mice/group) at 8-24 h after LPS infusion with or without 5-MTP(23.4 mg/kg) was determined by an assay kit.

Regarding `COc1ccc2[nH]cc(C[C@H](N)C(=O)O)c2c1` [5-MTP, 5-methoxytryptophan], the “high fat diet-induced vascular calcification” value with vascular calcification is “prevented”. For the same compound, the “neutrophil infiltration in lung tissues” value was “reduced the infiltration almost to the basal level” in the test on neutrophil infiltration (5-MTP at 100 mg/kg); “dose-dependently reduced” with neutrophil infiltration (LPS, 4 h, 12 h, 16 h and 24 h). Also, in the test with caspase-3, the “cleaved caspase-3 in lung tissues” value was “reduced by 5-MTP”. In addition, the “phosphorylation of ERK½” value with ERK½ is “but not that of ERK½”. Further, the “LPS-induced IL-6 promoter activity” value with IL-6 promoter is “inhibited”. Besides, in the test with lung tissues, the “LPS-induced lung pathological changes (leukocyte infiltration, septal wall thickening, edema, congestion)” value is “significantly alleviated”. Besides, the “lung MPO activity” value in the test with Myeloperoxidase (MPO) is “reduced neutrophil infiltration to the basal level”. Moreover, the “p300 HAT activity in lung tissues” value in the test on p300 HAT is recorded as “suppressed by 5-MTP”.
